In experiment [1] the target is Substance-P receptor (Cavia porcellus, UniProt P30547). As to the kind of experiment: ChEBML_205410. An excerpt: In vitro binding affinity against Tachykinin receptor 1 in guinea pig ileum using organ bath assay
Experiment [2] can be described thus: In vitro binding affinity against Tachykinin receptor 1 in rabbit whole brain membranes using [3H][Sar9Met(O2)]-SP binding assay.

A value given as a limit tells only on which side of the number the result lay.

Chain of Substance-P receptor (P30547 whole entry): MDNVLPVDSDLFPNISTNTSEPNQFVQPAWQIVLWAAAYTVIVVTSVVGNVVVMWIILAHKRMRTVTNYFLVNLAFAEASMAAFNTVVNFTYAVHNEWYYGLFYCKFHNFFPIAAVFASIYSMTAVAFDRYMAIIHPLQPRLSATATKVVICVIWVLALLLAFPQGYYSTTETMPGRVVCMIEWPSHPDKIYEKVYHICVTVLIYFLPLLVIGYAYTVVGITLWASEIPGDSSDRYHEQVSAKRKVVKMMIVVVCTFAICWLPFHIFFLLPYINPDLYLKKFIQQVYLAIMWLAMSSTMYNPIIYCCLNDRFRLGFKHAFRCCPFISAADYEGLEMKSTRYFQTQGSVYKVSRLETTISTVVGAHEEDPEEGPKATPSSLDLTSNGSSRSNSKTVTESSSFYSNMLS

Compound `CSCCNS(=O)(=O)c1ccc(NNC(=S)N2CCCC2C(=O)NCc2ccccc2)c([N+](=O)[O-])c1` (configuration not stated) came in with an IC50 in experiment [1] greater than 100 µM.

As for `CSCCNS(=O)(=O)c1ccc(NNC(=S)N2CCCC2C(=O)NC(c2ccccc2)c2ccccc2)c([N+](=O)[O-])c1` (configuration not stated), the IC50 in experiment [2] was greater than 50 µM.

The IC50 is the point on the concentration scale where inhibition reaches its midpoint. Higher therefore signals lower potency.
